Here are results for 36 molecules from patent US10167300B2, “Metalloenzyme inhibitor compounds as fungicides” (priority 2014, dated 2019).

This experiment is described as follows: Type B (low volume, EC formulation, track sprayer 200 L/ha) assay, leaf blotch of wheat, SEPTTR field isolate (FI SEPTTR). Format: in vivo, Mycosphaerella graminicola on wheat plants (variety Yuma). To be noted: Zymoseptoria tritici, 72 h, 100 g/ha. As for the experimental part:
Example A: Evaluation of Fungicidal Activity: Leaf Blotch of Wheat (Mycosphaerella graminicola; Anamorph: Septoria tritici; Bayer Code SEPTTR)
For Type A assays, technical grades of the experimental fungicides in Table 4 below were dissolved in acetone, and then mixed with nine volumes of water containing 110 ppm Triton X-100. The fungicide solutions were applied onto wheat seedlings using an automated booth sprayer. For Type B assays, emulsifiable concentrate (EC) formulations of technical grades of the experimental fungicides in Table 4 below were prepared at 10% (w/v), and then mixed with 150 volumes of 0.1% Trycol 5941. These solutions were applied onto wheat seedlings using an automated track sprayer at 200 L/ha. All sprayed plants were allowed to air dry prior to further handling.
Wheat plants (variety Yuma) were grown from seed in a greenhouse in 50% mineral soil/50% soil-less Metro mix until the first leaf was fully emerged, with 7-10 seedlings per pot. Prior to or after application of experimental fungicides, plants were inoculated either with spores of a standard laboratory SEPTTR isolate (SI SEPTTR) or with spores from a SEPTTR field isolate collected from Wellsbourne, England in 2012 (FI SEPTTR). After inoculation the plants were kept for 3 days at 20° C. in 100% relative humidity (one day in a dark dew chamber followed by two days in a lighted dew chamber). Plants were then transferred to a 20° C. greenhouse for disease development. When disease symptoms were fully expressed on untreated plants, infection levels on treated plants were assessed on a scale of 0 to 100 percent disease severity. Percent disease control was calculated using the ratio of disease severity on treated plants relative to untreated plants.

The mark [1] stands for this setting: SEPTTR field isolate, low volume Type B assay, 3 Day Curative, wheat leaf blotch, read-out: Disease Control, FI SEPTTR Type B Assay (100 g/ha) 3 DC.
[2] abbreviates: SEPTTR field isolate, low volume Type B assay, 3 Day Protectant, wheat leaf blotch, read-out: Disease Control, FI SEPTTR Type B Assay (100 g/ha) 3 DP.
Setting [3] is: field isolate, low volume EC, 3 Day Curative, wheat (Yuma), read-out: Disease Control, FI SEPTTR Type B Assay (100 g/ha) 3 DC.
Setting [4] is: field isolate, low volume EC, 3 Day Protectant, wheat (Yuma), read-out: Disease Control, FI SEPTTR Type B Assay (100 g/ha) 3 DP.

Structures are written as SMILES. Where two headings read alike, the source gives them in different places. Where only a bound is given, the exact number is not on record here.

For the molecule `CC(C)(C)C(O)(c1ccc(-c2ccc(OC(F)(F)F)cc2F)cn1)c1cnccn1` (stereo not drawn) [Compound 271], the pest or weed control at 100 g/ha is less than 40% under setting [1] and 80 to 100% under setting [2].

`C#CCOC(C#CC)(c1cncnc1)c1ccc(-c2ccc(OC(F)(F)F)cc2F)cn1` (stereo not drawn) [Compound 248]: the pest or weed control at 100 g/ha reads like this: under setting [3], less than 40%; under setting [4], 40 to 59%.

Turning to `COc1ncncc1C(O)(c1ccc(-c2ccc(OC(F)(F)F)cc2C)cn1)C(C)(C)C` (stereo not drawn) [Compound 222], the pest or weed control at 100 g/ha reads like this: under setting [3], 40 to 59%; under setting [4], 60 to 79%.

Consider `CC#CC(O)(c1cncnc1)c1ccc(-c2ccc(OC(F)(F)F)cc2)cn1` (stereo not drawn) [Compound 266], for which the pest or weed control at 100 g/ha under setting [1] was less than 40% and the pest or weed control at 100 g/ha under setting [2] fell in the range of 60 to 79%.

As to `COc1ncncc1C(O)(c1ccc(-c2ccc(OCC(F)(F)F)cc2)cn1)C(C)(C)C` (stereo not drawn) [Compound 203], the pest or weed control at 100 g/ha runs as follows: under setting [3], 40 to 59%; under setting [4], 80 to 100%.

For `C#CCOC(c1cncnc1)(c1ccc(-c2ccc(OC(F)(F)F)cc2F)cn1)C(C)C` (stereo not drawn) [Compound 191], the pest or weed control at 100 g/ha under setting [3] was less than 40% and the pest or weed control at 100 g/ha under setting [4] fell in the range of 80 to 100%.

As to `CC(C)(C#N)c1ccc(-c2ccc(C(O)(c3cncnc3)C(C)(C)C)nc2)c(C#N)c1` (stereo not drawn) [Compound 175, 5-(2-cyanopropan-2-yl)-2-(6-(1-hydroxy-2,2-dimethyl-1-(pyrimidin-5-yl)propyl)pyridin-3-yl)benzonitrile], the pest or weed control at 100 g/ha under setting [3] was 80 to 100% and the pest or weed control at 100 g/ha under setting [4] is 80 to 100%.

On to `CCOC(C)(c1cncnc1)c1ccc(-c2ccc(OC(F)(F)F)cc2F)cn1` (stereo not drawn) [Compound 215], for which the pest or weed control at 100 g/ha by setting is: under setting [3], less than 40%; under setting [4], less than 40%.

Take `CC(C)(C)C(O)(c1ccc(-c2ccc(C3(C#N)CC3)cc2)cn1)c1cnccn1` (stereo not drawn) [Compound 229]: the pest or weed control at 100 g/ha reads like this: under setting [3], 60 to 79%; under setting [4], 60 to 79%.

Turning to `CC(C)(C#N)c1ccc(-c2ccc(C(O)(c3cncnc3)C(C)(C)C)nc2)c(Cl)c1` (stereo not drawn) [Compound 265], the pest or weed control at 100 g/ha by setting is: under setting [1], 80 to 100%; under setting [2], 80 to 100%.

On to `C#CCOC(c1cncnc1)(c1ccc(-c2ccc(OC(F)(F)F)cc2)cn1)C(C)(C)C` (stereo not drawn) [Compound 197], for which the pest or weed control at 100 g/ha is, setting by setting: under setting [3], less than 40%; under setting [4], 80 to 100%.

With `CC(C)(C)C(O)(c1cncnc1)c1ccc(-c2ccc(F)cc2Cl)cn1` (stereo not drawn) [Compound 166], the pest or weed control at 100 g/ha is 80 to 100% under setting [3] and 80 to 100% under setting [4].

Take `CC(C)(C)c1ccc(-c2ccc(C(O)(Cc3cncnc3)C(C)(C)C)nc2)cc1` (stereo not drawn) [Compound 181]: the pest or weed control at 100 g/ha runs as follows: under setting [3], less than 40%; under setting [4], 60 to 79%.

With `COc1ncncc1C(O)(c1ccc(-c2ccc(OCC(F)(F)F)cn2)cn1)C(C)(C)C` (stereo not drawn) [Compound 186], the pest or weed control at 100 g/ha by setting is: under setting [3], 40 to 59%; under setting [4], 80 to 100%.

Take `CCOC(c1cncnc1)(c1ccc(-c2ccc(OC(F)(F)F)cc2)cn1)C(C)C` (stereo not drawn) [Compound 272]: the pest or weed control at 100 g/ha reads like this: under setting [1], less than 40%; under setting [2], 60 to 79%.

On to `CC#CC(OCC)(c1cncnc1)c1ccc(-c2ccc(OC(F)(F)F)cc2)cn1` (stereo not drawn) [Compound 242], for which the pest or weed control at 100 g/ha was less than 40% under setting [3] and 40 to 59% under setting [4].

On to `CC#CC(O)(c1cncnc1)c1ccc(-c2ccc(OC(F)(F)F)cc2F)cn1` (stereo not drawn) [Compound 185], for which the pest or weed control at 100 g/ha is less than 40% under setting [3] and 80 to 100% under setting [4].

For `COC(c1cncnc1)(c1ccc(-c2ccc(OCC(F)(F)F)cc2)cn1)C(C)(C)C` (stereo not drawn) [Compound 257], the pest or weed control at 100 g/ha under setting [1] lay in the range of 60 to 79% and the pest or weed control at 100 g/ha under setting [2] lay within 60 to 79%.

Turning to `CCOC(c1cncnc1)(c1ccc(-c2ccc(OC(F)(F)F)cc2F)cn1)C(C)(C)C` (stereo not drawn) [Compound 220], the pest or weed control at 100 g/ha runs as follows: under setting [3], less than 40%; under setting [4], 80 to 100%.

With `Cc1cc(C2(C#N)CCC2)ccc1-c1ccc(C(O)(c2cncnc2)C(C)(C)C)nc1` (stereo not drawn) [Compound 212], the pest or weed control at 100 g/ha fell in the range of 80 to 100% under setting [3] and 80 to 100% under setting [4].

As to `CCC(O)(c1cncnc1)c1ccc(-c2ccc(OC(F)(F)F)cc2F)cn1` (stereo not drawn) [Compound 205], the pest or weed control at 100 g/ha lay in the range of 40 to 59% under setting [3] and 80 to 100% under setting [4].

Consider `CC(C)(C)C(O)(c1cncnc1)c1ccc(-c2ccc(F)cc2F)cn1` (stereo not drawn) [Compound 164], for which the pest or weed control at 100 g/ha lay within 80 to 100% under setting [3] and 80 to 100% under setting [4].

Turning to `COc1ncncc1C(O)(c1ccc(-c2ccc(Cl)cc2)cn1)C(C)(C)C` (stereo not drawn) [Compound 247], the pest or weed control at 100 g/ha runs as follows: under setting [3], less than 40%; under setting [4], 80 to 100%.

As for `CC(C)(C)C(O)(c1cncnc1)c1ccc(-c2ccc(C3(C#N)CC3)cc2F)cn1` (stereo not drawn) [Compound 236], the pest or weed control at 100 g/ha was in the range of 80 to 100% under setting [3] and 80 to 100% under setting [4].

With `CC(C)(C)C(O)(Cc1cccnc1)c1ccc(-c2ccc(OCC(F)(F)F)nc2)cn1` (stereo not drawn) [Compound 234], the pest or weed control at 100 g/ha is, setting by setting: under setting [3], 40 to 59%; under setting [4], 60 to 79%.

`CC(C)(C#N)c1ccc(-c2ccc(C(O)(c3cncnc3)C(C)(C)C)nc2)nc1` (stereo not drawn) [Compound 183]: the pest or weed control at 100 g/ha under setting [3] fell in the range of 80 to 100% and the pest or weed control at 100 g/ha under setting [4] fell in the range of 80 to 100%.

As for `Cc1cc(C(C)(C)C#N)cc(C)c1-c1ccc(C(O)(c2cncnc2)C(C)(C)C)nc1` (stereo not drawn) [Compound 252], the pest or weed control at 100 g/ha under setting [3] fell in the range of 80 to 100% and the pest or weed control at 100 g/ha under setting [4] was 80 to 100%.

Take `CCC(OC)(c1cncnc1)c1ccc(-c2ccc(OC(F)(F)F)cc2)cn1` (stereo not drawn) [Compound 213]: the pest or weed control at 100 g/ha was in the range of 60 to 79% under setting [3] and 60 to 79% under setting [4].

Regarding `CC#CC(OC)(c1cncnc1)c1ccc(-c2ccc(OC(F)(F)F)cc2)cn1` (stereo not drawn) [Compound 217], the pest or weed control at 100 g/ha runs as follows: under setting [3], less than 40%; under setting [4], less than 40%.

Regarding `CC(C)(C)C(O)(c1ccc(-c2ccc(OC(F)(F)F)cc2)cn1)c1cnccn1` (stereo not drawn) [Compound 207], the pest or weed control at 100 g/ha by setting is: under setting [3], 40 to 59%; under setting [4], 60 to 79%.

As to `C#CCOC(c1cncnc1)(c1ccc(-c2ccc(OC(F)(F)F)cc2F)cn1)C1CC1` (stereo not drawn) [Compound 250], the pest or weed control at 100 g/ha runs as follows: under setting [3], less than 40%; under setting [4], 80 to 100%.

`CC(C)(C#N)c1ccc(-c2ccc(C(O)(c3cncnc3)C(C)(C)C)nc2)c(F)c1` (stereo not drawn) [Compound 226]: the pest or weed control at 100 g/ha is, setting by setting: under setting [3], 80 to 100%; under setting [4], 80 to 100%.

With `COC(c1cncnc1)(c1ccc(-c2ccc(C3(C#N)CC3)cc2)cn1)C(C)(C)C` (stereo not drawn) [Compound 192], the pest or weed control at 100 g/ha under setting [3] lay in the range of 80 to 100% and the pest or weed control at 100 g/ha under setting [4] was in the range of 80 to 100%.

In the case of `COc1ncncc1C(O)(c1ccc(-c2ccc(C(C)(C)C#N)cc2)cn1)C(C)(C)C` (stereo not drawn) [Compound 240], the pest or weed control at 100 g/ha was in the range of 80 to 100% under setting [3] and 80 to 100% under setting [4].

For `COc1cc(C(C)(C)C#N)ccc1-c1ccc(C(O)(c2cncnc2)C(C)(C)C)nc1` (stereo not drawn) [Compound 263], the pest or weed control at 100 g/ha under setting [1] lay within 80 to 100% and the pest or weed control at 100 g/ha under setting [2] fell in the range of 80 to 100%.

Consider `COC(c1cncnc1)(c1ccc(-c2ccc(OCC(F)(F)F)nc2)cn1)C(C)(C)C` (stereo not drawn) [Compound 253], for which the pest or weed control at 100 g/ha under setting [3] is 80 to 100% and the pest or weed control at 100 g/ha under setting [4] is 80 to 100%.
